Test results taken from patent US7084166B2, “Bis-heterocyclic compounds with antitumour and chemosensitising activity” (Sigma-Tau Industrie Farmaceutichee Riunite S.p.A., priority 2000, dated 2006).
Where “and” joins values, the source holds several entries; their conditions need not be identical. Equal values may be shown once. Read-outs that look alike come from different tables or passages of the source.

What was measured:
Assay type in all cases: cell-based
[1] = test system: MES-SA Dx (human uterine sarcoma); assay: Cytotoxicity test on resistant tumour cell lines, tested compound alone; details: 24 h incubation, survival after 48 h, ± SD
Procedure: (§1) This test was used to evaluate the survival of human cell lines resistant to doxorubicin (about 100 times) and cross-resistant to daunorubicin, actinomycin D, mitoxantrone, vincristine, vinblastin, taxol, colchicine, and etoposide.
(§2) The following cell lines were used: MCF-7-Dx (human mammary carcinoma), LoVo-Dx (human colon adenocarcinoma), MES-SA Dx (human uterine sarcoma).
(§3) Before using the association doxorubicin-tested compound, the cytotoxicity of the cells was evaluated with the tested compound (alone) as follows: the cells were incubated with the compound, at scalar concentrations (500 μM÷0.97 μM), for 24 hours; the compound was then removed and cell survival was evaluated after 48 hours with the above-mentioned sulforodamine B test. The antiproliferative activity of the compounds was evaluated in terms of IC50 (concentration of the compound that inhibits 50% of cell survival) processed with the above-mentioned curve-fitting program.

[2] = test system: MCF-7-Dx (human mammary carcinoma); assay: as above; details: 24 h incubation, survival after 48 h, ± SD
Procedure: as §1, §2, §3

[3] = test system: LoVo-Dx (human colon adenocarcinoma); assay: as above; details: 24 h incubation, survival after 48 h, ± SD
Procedure: as §1, §2, §3

[4] = test system: MES-SA (human uterine sarcoma); assay: Cytotoxicity test on sensitive tumour cell lines (sulforodamine B test); details: 24 h incubation, survival after 48 h, ± S.D., read-out: antiproliferative activity IC50, Mes-Sa
Procedure: (§4) This test was used to evaluate the survival of the human cell lines MCF-7 (human mammary carcinoma), LoVo (human colon adenocarcinoma), and MES-SA (human uterine sarcoma). The tumour cells were incubated with the compound, at scalar concentrations, (500 μM÷0.97 μM) for 24 hours; the compound was then removed and cell survival was evaluated after 48 hours using the sulforodamine B test (J. Natl. Cancer Inst. 82, 1107–1112). The antiproliferative activity of the compounds was evaluated in terms of the IC50 (concentration of the molecule that inhibits 50% of cell survival) processed with a curve-fitting program (Am. J. Physiol. 1978., 235, E97–E102) and expressed as μM±S.D.

[5] = test system: MCF-7 (human mammary carcinoma); assay: as above; details: 24 h incubation, survival after 48 h, ± S.D., read-out: antiproliferative activity IC50, MCF-7
Procedure: as §4

[6] = test system: LoVo (human colon adenocarcinoma); assay: as above; details: 24 h incubation, survival after 48 h, ± S.D., read-out: antiproliferative activity IC50, Lovo
Procedure: as §4

[7] = test system: HL60 cells (acute promyelocytic leukaemia); assay: Flow cytofluorimetric analysis of cell cycle; details: ATRA 0.5 μM alone, day 3
Procedure: The second line used was the HL60 cell line which responds to ATRA (but is less sensitive than the NB4 cell line).
The HL60 and NB4 cells were seeded at a density of 150,000 cells/ml in RPMI 1640 medium containing 10% foetal calf serum, and were treated with the tested compounds in the presence and absence of suboptimal doses of ATRA (5–10 nM for NB4 and 0.5 μM for HL60, respectively) in the dark, and returned to the incubator for 3 days without ever replacing the culture medium.
(§5) To assess the effect of the tested compounds on the various phases of the cell cycle, on the third day of treatment 500,000 cells were harvested, centrifuged at 1,000 rpm for 10 minutes, washed twice in PBS w/o (PBS without calcium and magnesium) and fixed in a solution of 50% PBS w/o+50% methanol/acetone (1:4 v/v) for at least 1 hour; the cells were then centrifuged as described, washed in PBS w/o and centrifuged again.
(§6) 200 μl of propidium iodide 100 μg/ml and 200 μl of RNase 150 kU/mg were then added to the cell pellet.
(§7) After a 30-min incubation in the dark at room temperature, the samples were analysed by flow cytofluirometry.

[8] = test system: NB4 cells (acute promyelocytic leukaemia); assay: Flow cytofluorimetric analysis of cell cycle; set-up: APOPTOSIS: unit not given here; details: ATRA 0.01 μM alone, day 3
Procedure: The first line used was the NB4 cell line, bearing the t(15;17) chromosomal translocation which generates the fusion protein PML/RARα.
as §5, §6, §7

Compound | IC50 [2] | IC50 [3] | IC50 ([5]; Homo sapiens, MCF7) | IC50 ([6]; Homo sapiens, LoVo) | IC50 ([1]; Homo sapiens, MES-SA Dx) | IC50 ([2]; Homo sapiens, MCF7/DX) | IC50 ([3]; Homo sapiens, LoVo/DX) | IC50 [5] | IC50 [6] | other results
OC[C@@H](O)[C@@H](O)[C@H](O)[C@@H](O)C(c1c[nH]c2ccccc12)c1c[nH]c2ccccc12 [ST 1350, 1,1-di-indol-3-yl-1-deoxy-D-glucose] | 70.8 ± 3.7 µM | > 500 µM |  |  |  |  |  |  |  | IC50 [1]: 81.4 ± 8 µM
CS(=O)(=O)OCCCCC(c1c[nH]c2ccccc12)c1c[nH]c2ccccc12 [ST 1488, 1,1-di-(indol-3-yl)-5-mesyloxy-pentane] |  |  | 13.4 ± 2.2 µM | 11 ± 1.6 µM | 10.3 ± 1.9 µM | 9.7 ± 1.3 µM | 18.1 ± 0.6 µM |  |  | IC50 ([4]; Homo sapiens, MES-SA): 15.8 ± 1.8 µM
O=C(c1cn(Cc2ccccc2)c2ccccc12)c1cn(Cc2ccccc2)c2ccccc12 [ST 1473, di-(N-benzyl-indol-3-yl)-oxomethane] |  |  |  |  | > 500 µM | > 500 µM | 8.6 ± 2.9 µM |  |  | 
CCOC(=O)c1ccc(C(c2ccccc2)c2ccc(C(=O)OCC)[nH]2)[nH]1 [ST 1431, di-(5-ethoxycarbonyl-pyrrol-2-yl)-phenyl-methane] |  |  | 20.3 ± 1.4 µM | 35.6 ± 0.5 µM |  |  |  |  |  | 
OCCCC(c1c[nH]c2cc3c(cc12)OCO3)c1c[nH]c2cc3c(cc12)OCO3 [ST 1730, 4-hydroxy-1,1-di-(5,6-methylenedioxy-indol-3-yl)-butane] |  |  | 24.5 ± 3.7 µM | 9.3 ± 0.9 µM |  |  |  |  |  | 
OC(c1ccccc1)(c1nccn1Cc1ccccc1)c1nccn1Cc1ccccc1 [ST 1440, phenyl, hydroxy, di-(N,N-dibenzyl-imidazol-2-yl) methane] | 29.7 ± 2.6 µM | 4.6 ± 0.6 µM |  |  |  |  |  | 17 ± 2.9 µM | 11.7 ± 0.2 µM | IC50 [4]: 4.7 ± 0.4 µM; IC50 [1]: 14.9 ± 2.5 µM
CCCC(c1c[nH]c2ccc(F)cc12)c1c[nH]c2ccc(F)cc12 [ST 1438, 1,1-di-(5-fluoroindol-3-yl)-butane] |  |  | 28.1 ± 0.9 µM | 20 ± 0.8 µM | 35.6 ± 1.7 µM | 41.8 ± 5.3 µM | 25.9 ± 3.1 µM |  |  | IC50 ([4]; Homo sapiens, MES-SA): 21.8 ± 4.4 µM
CCCC(c1c[nH]c2ccc(O)cc12)c1c[nH]c2ccc(O)cc12 [ST 1393, 1,1-di-(5-hydroxyindol-3-yl)-butane] |  |  | 5.9 ± 0.8 µM | 3 ± 0.5 µM | 7.5 ± 0.3 µM | 9.2 ± 0.4 µM | 2.7 ± 0.4 µM |  |  | IC50 ([4]; Homo sapiens, MES-SA): 5.7 ± 0.1 µM
CC1(C)O[C@@H]([C@H](O)[C@H]2COC(C)(C)O2)[C@@H](C(c2c[nH]c3ncccc23)c2c[nH]c3ncccc23)O1 [ST 1353, 2,3-5,6-di-O-isopropylidene-1,1-di-7-azaindol-3-yl-1-deoxy-D-mannitol] | > 500 µM | 367 ± 82 µM |  |  |  |  |  |  |  | 
CCCC(c1c[nH]c2cc3c(cc12)OCO3)c1c[nH]c2cc3c(cc12)OCO3 [ST 1478, 1,1-di-(5,6-methylenedioxy-indol-3-yl)-butane] |  |  | 11.8 ± 0.4 µM | 15.4 ± 1.8 µM | 7.8 ± 1.5 µM | 15.2 ± 1.9 µM | 10.7 ± 0.6 µM |  |  | IC50 ([4]; Homo sapiens, MES-SA): 17 ± 2 µM
CCCc1c(C(=O)c2cn(Cc3ccccc3)c3ccccc23)c2ccccc2n1Cc1ccccc1 [ST 1494, (N-benzyl-indol-3-yl, N-benzyl-2-propyl indol-3-yl)-oxomethane] | > 200 µM | > 200 µM |  |  |  |  |  |  |  | IC50 [1]: > 200 µM
OCCCC(c1cc2cc3c(cc2[nH]1)OCO3)c1c[nH]c2cc3c(cc12)OCO3 (racemic) [ST 1731, (R,S)-4-hydroxy-1,1-di-(5,6-methylenedioxy-indol-2-yl, 5,6-methylenedioxy-indol-3-Yl)-butane] |  |  |  |  |  |  |  | 30.1 ± 4 µM | 23.9 ± 0.7 µM | 
CC(=O)OC[C@@H](OC(C)=O)[C@@H](OC(C)=O)[C@H](OC(C)=O)[C@@H](OC(C)=O)C(c1c[nH]c2ccccc12)c1c[nH]c2ccccc12 [ST 1363, 1,1-di-indol-3-yl-1-deoxy-pentaacetyl-D-glucose] | 65.4 ± 0.7 µM | 121 ± 12 µM |  |  |  |  |  | 25 ± 2.8 µM | 31.3 ± 1.6 µM | IC50 [4]: 33.6 ± 5.9 µM
FCCCCC(c1c[nH]c2ccccc12)c1c[nH]c2ccccc12 [ST 1382, 1,1-(diindol-3-yl)-5-fluoro-pentane] | 40.2 ± 3 µM | 34.3 ± 6.9 µM |  |  |  |  |  | 28.5 ± 6 µM | 33.5 ± 3.7 µM | IC50 [4]: 40.2 ± 4.1 µM; IC50 [1]: 12.5 ± 0.3 µM
CCCC(c1c[nH]c2ccc([N+](=O)[O-])cc12)c1c[nH]c2ccc([N+](=O)[O-])cc12 [ST 1429, 1,1-di-(5 nitroindol-3-yl)-butane] |  |  | 10.4 ± 0.3 µM | 23.6 ± 0.5 µM | 15.3 ± 0.4 µM | 12.9 ± 0.7 µM | 10.2 ± 0.5 µM |  |  | IC50 ([4]; Homo sapiens, MES-SA): 15 ± 2.5 µM
CCCC(c1cc2ccccc2[nH]1)c1c[nH]c2ccccc12 (racemic) [ST 1625, (R,S)-1,1-(indol-2-yl, indol-3-yl) butane] |  |  |  |  |  |  |  | 13.4 ± 1 µM | 17.1 ± 3.8 µM | IC50 [4]: 14.1 ± 3.8 µM
CCCC(c1c[nH]c2ccc(NC(C)=O)cc12)c1c[nH]c2ccc(NC(C)=O)cc12 [ST 1477, 1,1-di-(5-acetamido-indol-3-yl)-butane] |  |  | 33.1 ± 2.9 µM | 59.4 ± 6.9 µM |  |  |  |  |  | IC50 ([4]; Homo sapiens, MES-SA): 28.7 ± 0.2 µM
c1ccc2c(C(c3c[nH]c4ccccc34)C3CCCCC3)c[nH]c2c1 [ST 1487, 1,1-di-(indol-3-yl)-cyclohexylmethane] | 15.3 ± 1 µM | 27.8 ± 2.1 µM |  |  |  |  |  | 29.9 ± 0.006 µM | 24.9 ± 0.1 µM | IC50 [4]: 38.7 ± 0.03 µM; IC50 [1]: 16 ± 3.5 µM
CC(=O)OCCCCC(c1c[nH]c2ccccc12)c1c[nH]c2ccccc12 [ST 1371, 5-acetoxy-1,1-diindol-3-yl-pentane] |  |  | 27.7 ± 4.2 µM | 33 ± 3 µM | 53 ± 0.4 µM | 74.1 ± 2.5 µM | 47.9 ± 4.7 µM |  |  | 
CC1(C)OCC(C(O)C2OC(C)(C)OC2C(c2c[nH]c3ccccc23)c2c[nH]c3ccccc23)O1 [ST 1339, 2,3-5,6-di-O-isopropylidene-1,1-di-indol-3-yl-1-deoxy-D-mannitol] | 98.2 ± 12 µM | 11 ± 0.6 µM |  |  |  |  |  |  |  | IC50 [1]: 56.1 ± 11 µM
CC1=C(/C=C/C(C)=C/C=C/C(C)=C/C(=O)O)C(C)(C)CCC1 [ATRA, all-trans retinoic acid, reference compound] |  |  |  |  |  |  |  |  |  | G0/G1 [7]: 63.3 and 63.4; G2/M [7]: 11.0; S [7]: 25.7 and 25.6; APOPTOSIS [8]: 10 and 17.5 and 12.5; G0/G1 [8]: 54.6 and 65.0 and 55.8; G2/M [8]: 14.4 and 11.0 and 17.3; S [8]: 31.0 and 24.0 and 26.9
CCCC(c1c[nH]c2ccc(N)cc12)c1c[nH]c2ccc(N)cc12 [ST 1437, 1,1-di-(5-amino-indol-3-yl)-butane. 2HCl] |  | 8 ± 0.6 µM |  |  |  |  |  | 8.3 ± 1.2 µM | 16.7 ± 3.4 µM | IC50 [4]: 4.4 ± 0.06 µM; IC50 [1]: 12.2 ± 0.8 µM
FCCCC[C@@H](c1cc2ccccc2[nH]1)c1c[nH]c2ccccc12 (racemic) [ST 1421, (R,S)-5-fluoro-1,1-(indol-2-ylindol-3-yl)-pentane] |  |  |  |  |  |  |  | 20.4 ± 2.8 µM | 20.7 ± 0.7 µM | 
CCCC(c1c[nH]c2ccccc12)c1c[nH]c2ccccc12 [ST 1385, 1,1-di-indol-3-yl-butane] |  |  | 27 ± 3.2 µM | 26.4 ± 0.4 µM | 33.6 ± 2.9 µM | 34.6 ± 2 µM | 17.6 ± 0.9 µM |  |  | IC50 ([4]; Homo sapiens, MES-SA): 19.5 ± 4 µM
CCC=C(c1cn(Cc2ccccc2)c2ccccc12)c1cn(Cc2ccccc2)c2ccccc12 [ST 1492, 1,1-di-(N-benzyl-indol-3-yl)-1-butene] |  |  |  |  | 178 ± 41 µM |  | > 350 µM |  |  | 
